{"source": "PubChem BioAssay AID2060897", "about": "(Molecular Pharmacology Branch, DTP, NCI, 2025);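 further: spheroids exposed to agents for one week before readout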;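 on viability, T/C: percent viability relative to DMSO vehicle control wells as 100%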", "system": "966289-007-R4-J1-PDC complex spheroid viability", "assay": "Anticancer human tumor 966289-007-R4-J1-PDC patient-derived pancreatic adenocarcinoma cell line growth inhibition [RAS]", "settings": "for IC50: curve of first compound; for viability, T/C: stronger effect = lower value", "how_it_was_run": "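Tumour cells grown as complex spheroids with HUVEC endothelial cells and mesenchymal stem cells, treated with RAS pathway inhibitor combinations. Each agent spans half-log steps from near clinical Cmax, or 10 microM where Cmax is unknown.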", "key": {"[1]": {"settings": "second compound 0.0316 µM, first compound 0.0316 µM"}, "[2]": {"settings": "second compound 0.0316 µM, first compound 0.1 µM"}, "[3]": {"settings": "second compound 0.0316 µM, first compound 0.316 µM"}, "[4]": {"settings": "second compound 0.0316 µM, first compound 1 µM"}, "[5]": {"settings": "second compound 0.1 µM, first compound 0.0316 µM"}, "[6]": {"settings": "second compound 0.1 µM, first compound 0.1 µM"}, "[7]": {"settings": "second compound 0.1 µM, first compound 0.316 µM"}, "[8]": {"settings": "second compound 0.1 µM, first compound 1 µM"}, "[9]": {"settings": "second compound 0.316 µM, first compound 0.0316 µM"}, "[10]": {"settings": "second compound 0.316 µM, first compound 0.1 µM"}, "[11]": {"settings": "second compound 0.316 µM, first compound 0.316 µM"}, "[12]": {"settings": "second compound 0.316 µM, first compound 1 µM"}, "[13]": {"settings": "second compound 1 µM, first compound 0.0316 µM"}, "[14]": {"settings": "second compound 1 µM, first compound 0.1 µM"}, "[15]": {"settings": "second compound 1 µM, first compound 0.316 µM"}, "[16]": {"settings": "second compound 1 µM, first compound 1 µM"}, "[17]": {"settings": "second compound 3.16 µM, first compound 0.0316 µM"}, "[18]": {"settings": "second compound 3.16 µM, first compound 0.1 µM"}, "[19]": {"settings": "second compound 3.16 µM, first compound 0.316 µM"}, "[20]": {"settings": "second compound 3.16 µM, first compound 1 µM"}, "[21]": {"settings": "second compound 10 µM, first compound 0.0316 µM"}, "[22]": {"settings": "second compound 10 µM, first compound 0.1 µM"}, "[23]": {"settings": "second compound 10 µM, first compound 0.316 µM"}, "[24]": {"settings": "second compound 10 µM, first compound 1 µM"}}, "data": [{"smiles": "CC(=O)OC12COC1CC(O)C1(C)C(=O)C(O)C3=C(C)C(OC(=O)C(O)C(NC(=O)OC(C)(C)C)c4ccccc4)CC(O)(C(OC(=O)c4ccccc4)C21)C3(C)C", "note": "(centres undefined) + C#Cc1c(F)ccc2cc(O)cc(-c3ncc4c(N5CC6CCC(C5)N6)nc(OCC56CCCN5CC(F)C6)nc4c3F)c12", "values": [{"measurement": "IC50", "setting": "second compound 0.0316 µM", "result": "< 31.6", "unit": "nM"}, {"measurement": "IC50", "setting": "second compound 0.1 µM", "result": "< 31.6", "unit": "nM"}, {"measurement": "IC50", "setting": "second compound 0.316 µM", "result": "< 31.6", "unit": "nM"}, {"measurement": "IC50", "setting": "second compound 1 µM", "result": "< 31.6", "unit": "nM"}, {"measurement": "IC50", "setting": "second compound 3.16 µM", "result": "< 31.6", "unit": "nM"}, {"measurement": "IC50", "setting": "second compound 10 µM", "result": "< 31.6", "unit": "nM"}, {"measurement": "viability, T/C", "setting": "[1]", "result": 9.75, "unit": "%"}, {"measurement": "viability, T/C", "setting": "[2]", "result": 17.9, "unit": "%"}, {"measurement": "viability, T/C", "setting": "[3]", "result": 20.4, "unit": "%"}, {"measurement": "viability, T/C", "setting": "[4]", "result": 25.6, "unit": "%"}, {"measurement": "viability, T/C", "setting": "second compound 0.0316 µM, first compound 3.16 µM", "result": 50.5, "unit": "%"}, {"measurement": "viability, T/C", "setting": "second compound 0.0316 µM, first compound 10 µM", "result": 69.9, "unit": "%"}, {"measurement": "viability, T/C", "setting": "[5]", "result": 10.9, "unit": "%"}, {"measurement": "viability, T/C", "setting": "[6]", "result": 17.9, "unit": "%"}, {"measurement": "viability, T/C", "setting": "[7]", "result": 19.7, "unit": "%"}, {"measurement": "viability, T/C", "setting": "[8]", "result": 24.3, "unit": "%"}, {"measurement": "viability, T/C", "setting": "second compound 0.1 µM, first compound 3.16 µM", "result": 36.3, "unit": "%"}, {"measurement": "viability, T/C", "setting": "second compound 0.1 µM, first compound 10 µM", "result": 70.3, "unit": "%"}, {"measurement": "viability, T/C", "setting": "[9]", "result": 10.4, "unit": "%"}, {"measurement": "viability, T/C", "setting": "[10]", "result": 19.1, "unit": "%"}, {"measurement": "viability, T/C", "setting": "[11]", "result": 19.3, "unit": "%"}, {"measurement": "viability, T/C", "setting": "[12]", "result": 26, "unit": "%"}, {"measurement": "viability, T/C", "setting": "second compound 0.316 µM, first compound 3.16 µM", "result": 49.9, "unit": "%"}, {"measurement": "viability, T/C", "setting": "second compound 0.316 µM, first compound 10 µM", "result": 68.4, "unit": "%"}, {"measurement": "viability, T/C", "setting": "[13]", "result": 9.72, "unit": "%"}, {"measurement": "viability, T/C", "setting": "[14]", "result": 18.3, "unit": "%"}, {"measurement": "viability, T/C", "setting": "[15]", "result": 21.2, "unit": "%"}, {"measurement": "viability, T/C", "setting": "[16]", "result": 31.8, "unit": "%"}, {"measurement": "viability, T/C", "setting": "second compound 1 µM, first compound 3.16 µM", "result": 44.9, "unit": "%"}, {"measurement": "viability, T/C", "setting": "second compound 1 µM, first compound 10 µM", "result": 71.8, "unit": "%"}, {"measurement": "viability, T/C", "setting": "[17]", "result": 10.6, "unit": "%"}, {"measurement": "viability, T/C", "setting": "[18]", "result": 20.9, "unit": "%"}, {"measurement": "viability, T/C", "setting": "[19]", "result": 25, "unit": "%"}, {"measurement": "viability, T/C", "setting": "[20]", "result": 31.7, "unit": "%"}, {"measurement": "viability, T/C", "setting": "second compound 3.16 µM, first compound 3.16 µM", "result": 44.6, "unit": "%"}, {"measurement": "viability, T/C", "setting": "second compound 3.16 µM, first compound 10 µM", "result": 83.2, "unit": "%"}, {"measurement": "viability, T/C", "setting": "[21]", "result": 10.5, "unit": "%"}, {"measurement": "viability, T/C", "setting": "[22]", "result": 16.6, "unit": "%"}, {"measurement": "viability, T/C", "setting": "[23]", "result": 17.8, "unit": "%"}, {"measurement": "viability, T/C", "setting": "[24]", "result": 27.1, "unit": "%"}, {"measurement": "viability, T/C", "setting": "second compound 10 µM, first compound 3.16 µM", "result": 42.6, "unit": "%"}, {"measurement": "viability, T/C", "setting": "second compound 10 µM, first compound 10 µM", "result": 53.9, "unit": "%"}]}, {"smiles": "Nc1ccn(C2OC(CO)C(O)C2(F)F)c(=O)n1", "note": "(centres undefined) + C#Cc1c(F)ccc2cc(O)cc(-c3ncc4c(N5CC6CCC(C5)N6)nc(OCC56CCCN5CC(F)C6)nc4c3F)c12", "values": [{"measurement": "IC50", "setting": "second compound 0.0316 µM", "result": 7.64, "unit": "nM"}, {"measurement": "IC50", "setting": "second compound 0.1 µM", "result": 11.9, "unit": "nM"}, {"measurement": "IC50", "setting": "second compound 0.316 µM", "result": 8.38, "unit": "nM"}, {"measurement": "IC50", "setting": "second compound 1 µM", "result": 8.9, "unit": "nM"}, {"measurement": "IC50", "setting": "second compound 3.16 µM", "result": 8.38, "unit": "nM"}, {"measurement": "IC50", "setting": "second compound 10 µM", "result": 7.88, "unit": "nM"}, {"measurement": "viability, T/C", "setting": "second compound 0.0316 µM, first compound 0.00316 µM", "result": 108, "unit": "%"}, {"measurement": "viability, T/C", "setting": "second compound 0.0316 µM, first compound 0.01 µM", "result": 32.5, "unit": "%"}, {"measurement": "viability, T/C", "setting": "[1]", "result": 2.19, "unit": "%"}, {"measurement": "viability, T/C", "setting": "[2]", "result": 1.41, "unit": "%"}, {"measurement": "viability, T/C", "setting": "[3]", "result": 1.38, "unit": "%"}, {"measurement": "viability, T/C", "setting": "[4]", "result": 1.56, "unit": "%"}, {"measurement": "viability, T/C", "setting": "second compound 0.1 µM, first compound 0.00316 µM", "result": 99.4, "unit": "%"}, {"measurement": "viability, T/C", "setting": "second compound 0.1 µM, first compound 0.01 µM", "result": 58.5, "unit": "%"}, {"measurement": "viability, T/C", "setting": "[5]", "result": 1.48, "unit": "%"}, {"measurement": "viability, T/C", "setting": "[6]", "result": 1.34, "unit": "%"}, {"measurement": "viability, T/C", "setting": "[7]", "result": 1.6, "unit": "%"}, {"measurement": "viability, T/C", "setting": "[8]", "result": 1.65, "unit": "%"}, {"measurement": "viability, T/C", "setting": "second compound 0.316 µM, first compound 0.00316 µM", "result": 91.6, "unit": "%"}, {"measurement": "viability, T/C", "setting": "second compound 0.316 µM, first compound 0.01 µM", "result": 42.4, "unit": "%"}, {"measurement": "viability, T/C", "setting": "[9]", "result": 1.95, "unit": "%"}, {"measurement": "viability, T/C", "setting": "[10]", "result": 1.65, "unit": "%"}, {"measurement": "viability, T/C", "setting": "[11]", "result": 1.22, "unit": "%"}, {"measurement": "viability, T/C", "setting": "[12]", "result": 1.73, "unit": "%"}, {"measurement": "viability, T/C", "setting": "second compound 1 µM, first compound 0.00316 µM", "result": 101, "unit": "%"}, {"measurement": "viability, T/C", "setting": "second compound 1 µM, first compound 0.01 µM", "result": 44.2, "unit": "%"}, {"measurement": "viability, T/C", "setting": "[13]", "result": 2.02, "unit": "%"}, {"measurement": "viability, T/C", "setting": "[14]", "result": 1.61, "unit": "%"}, {"measurement": "viability, T/C", "setting": "[15]", "result": 1.68, "unit": "%"}, {"measurement": "viability, T/C", "setting": "[16]", "result": 1.67, "unit": "%"}, {"measurement": "viability, T/C", "setting": "second compound 3.16 µM, first compound 0.00316 µM", "result": 97.4, "unit": "%"}, {"measurement": "viability, T/C", "setting": "second compound 3.16 µM, first compound 0.01 µM", "result": 41.4, "unit": "%"}, {"measurement": "viability, T/C", "setting": "[17]", "result": 2.43, "unit": "%"}, {"measurement": "viability, T/C", "setting": "[18]", "result": 2.49, "unit": "%"}, {"measurement": "viability, T/C", "setting": "[19]", "result": 2.42, "unit": "%"}, {"measurement": "viability, T/C", "setting": "[20]", "result": 2.25, "unit": "%"}, {"measurement": "viability, T/C", "setting": "second compound 10 µM, first compound 0.00316 µM", "result": 99.1, "unit": "%"}, {"measurement": "viability, T/C", "setting": "second compound 10 µM, first compound 0.01 µM", "result": 37.1, "unit": "%"}, {"measurement": "viability, T/C", "setting": "[21]", "result": 1.37, "unit": "%"}, {"measurement": "viability, T/C", "setting": "[22]", "result": 1.51, "unit": "%"}, {"measurement": "viability, T/C", "setting": "[23]", "result": 1.83, "unit": "%"}, {"measurement": "viability, T/C", "setting": "[24]", "result": 1.37, "unit": "%"}]}]}
